Experimental data from patent publication US20050112573A1, “Method of detecting toxic substance” (priority 2001, published 2005).

System: yeast genes (level of expressed mRNA)
Experiment: DNA chip analysis of expressed mRNA of yeast genes after 2 h culture with a toxic chemical substance
Assay type: cell-based, Saccharomyces cerevisiae S288C
Conditions: for The level of expressed mRNA in the presence of chemical substance/ (ratio to absence): transport facilitation protein gene; for The level of expressed mRNA in the presence of chemical substance/: ratio to no chemical; for The level of expressed mRNA in the presence of chemical substance/ in its absence, gene YDL078C: yeast gene YDL078C
Summary of the method: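 S. cerevisiae S288C grown at 25° C in YPD; toxicant added at log phase at growth-inhibitory, non-lethal levels for 2 h, untreated cells as control. Poly(A) mRNA reverse-transcribed with Cy3/Cy5-dUTP, hybridized to whole-genome chip at 65° C >12 h; value is fluorescence ratio versus untreated.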

## sodium dodecylbenzosulfonate [(17)]
Yeast gene YBR122C, mitochondria-located protein genes, 2 h culture with chemical
  The level of expressed mRNA in the presence of chemical substance/ (ratio to absence), gene YBR122C: 0.9
Yeast gene YBR127C
  The level of expressed mRNA in the presence of chemical substance/ (ratio to absence): 0.8
Yeast gene YBR132C
  The level of expressed mRNA in the presence of chemical substance/ (ratio to absence): 1.1
Yeast gene YBR149W
  The level of expressed mRNA in the presence of chemical substance/in the absence of chemical substance: 2.1
Yeast gene YBR207W
  The level of expressed mRNA in the presence of chemical substance/ (ratio to absence): 1.2
Yeast gene YBR214W
  The level of expressed mRNA in the presence of chemical substance/The level of expressed mRNA in the absence of chemical substance: 1.1
Yeast gene YBR241C
  The level of expressed mRNA in the presence of chemical substance/ (ratio to absence): 1.0
Yeast gene YBR251W, mitochondria-located protein genes, 2 h culture with chemical
  The level of expressed mRNA in the presence of chemical substance/ (ratio to absence), gene YBR251W: 0.9
Yeast gene YBR256C
  The level of expressed mRNA in the presence of chemical substance/in the absence of chemical substance: 2.6
Yeast gene YBR269C
  The level of expressed mRNA in the presence of chemical substance/: 1.5
Yeast gene YBR280C
  The level of expressed mRNA in the presence of chemical substance/: 1.1
Yeast gene YBR284W
  The level of expressed mRNA in the presence of chemical substance/in the absence of chemical substance: 1.1
Yeast gene YBR285W
  The level of expressed mRNA in the presence of chemical substance/: 2.5
Yeast gene YBR291C
  The level of expressed mRNA in the presence of chemical substance/ (ratio to absence): 0.9
Yeast gene YBR292C
  The level of expressed mRNA in the presence of chemical substance/: 0.9
Yeast gene YBR293W
  The level of expressed mRNA in the presence of chemical substance/ (ratio to absence): 1.0
Yeast gene YBR294W
  The level of expressed mRNA in the presence of chemical substance/in the absence of chemical substance: 1.0
Yeast gene YBR295W
  The level of expressed mRNA in the presence of chemical substance/ (ratio to absence): 1.3
Yeast gene YBR296C
  The level of expressed mRNA in the presence of chemical substance/in the absence of chemical substance: 3.8
Yeast gene YBR298C, ratio of DNA chip fluorescence intensity to that without chemical substance
  The level of expressed mRNA in the presence of chemical substance/ (in its absence), gene YBR298C: 0.9
Yeast gene YCL018W
  The level of expressed mRNA in the presence of chemical substance/in the absence of chemical substance: 1.3
Yeast gene YCL020W
  The level of expressed mRNA in the presence of chemical substance/The level of expressed mRNA in the absence of chemical substance: 0.9
Yeast gene YCL025C
  The level of expressed mRNA in the presence of chemical substance/ (ratio to absence): 0.6
Yeast gene YCL027W
  The level of expressed mRNA in the presence of chemical substance/The level of expressed mRNA in the absence of chemical substance: 0.7
Yeast gene YCL038C
  The level of expressed mRNA in the presence of chemical substance/ (ratio to absence): 1.4
Yeast gene YCL040W
  The level of expressed mRNA in the presence of chemical substance/in the absence of chemical substance: 1.4
Yeast gene YCL043C
  The level of expressed mRNA in the presence of chemical substance/in the absence of chemical substance: 0.9
Yeast gene YCL050C
  The level of expressed mRNA in the presence of chemical substance/in the absence of chemical substance: 1.0
Yeast gene YCL069W
  The level of expressed mRNA in the presence of chemical substance/ (ratio to absence): 1.0
Yeast gene YCR004C
  The level of expressed mRNA in the presence of chemical substance/The level of expressed mRNA in the absence of chemical substance: 1.4
Yeast gene YCR012W
  The level of expressed mRNA in the presence of chemical substance/in the absence of chemical substance: 0.8
Yeast gene YCR024C-A
  The level of expressed mRNA in the presence of chemical substance/ (ratio to absence): 0.9
Yeast gene YCR037C
  The level of expressed mRNA in the presence of chemical substance/ (ratio to absence): 1.4
Yeast gene YCR046C, mitochondria-located protein genes, 2 h culture with chemical
  The level of expressed mRNA in the presence of chemical substance/ (ratio to absence), gene YCR046C: 1.3
Yeast gene YCR071C
  The level of expressed mRNA in the presence of chemical substance/The level of expressed mRNA in the absence of chemical substance: 1.2
Yeast gene YCR083W, mitochondria-located protein genes, 2 h culture with chemical
  The level of expressed mRNA in the presence of chemical substance/ (ratio to absence), gene YCR083W: 1.3
Yeast gene YCR083W, stress protein genes, DNA chip
  The level of expressed mRNA in the presence of chemical substance/ (ratio to absence of chemical substance): 1.3
Yeast gene YCR088W
  The level of expressed mRNA in the presence of chemical substance/The level of expressed mRNA in the absence of chemical substance: 1.4
Yeast gene YCR098C
  The level of expressed mRNA in the presence of chemical substance/ (ratio to absence): 1.7
Yeast gene YCR107W
  The level of expressed mRNA in the presence of chemical substance/in the absence of chemical substance: 1.3
Yeast gene YDL008W
  The level of expressed mRNA in the presence of chemical substance/The level of expressed mRNA in the absence of chemical substance: 1.5
Yeast gene YDL010W
  The level of expressed mRNA in the presence of chemical substance/in the absence of chemical substance: 1.5
Yeast gene YDL021W
  The level of expressed mRNA in the presence of chemical substance/in the absence of chemical substance: 1.9
Yeast gene YDL024C
  The level of expressed mRNA in the presence of chemical substance/in the absence of chemical substance: 0.9
Yeast gene YDL067C, energy system protein genes, 2 h culture with the chemical, ratio to control without chemical
  The level of expressed mRNA in the presence of chemical substance/ in its absence, gene YDL067C: 1.2
Yeast gene YDL067C, mitochondria-located protein genes, 2 h culture with chemical
  The level of expressed mRNA in the presence of chemical substance/ (ratio to absence), gene YDL067C: 1.2
Energy system protein genes, 2 h culture with the chemical, ratio to control without chemical
  The level of expressed mRNA in the presence of chemical substance/ in its absence, gene YDL078C: 1.1
Ratio of DNA chip fluorescence intensity to that without chemical substance
  The level of expressed mRNA in the presence of chemical substance/ in its absence, gene YDL078C: 1.1
Yeast gene YDL095W
  The level of expressed mRNA in the presence of chemical substance/in the absence of chemical substance: 0.7
Yeast gene YDL113C
  The level of expressed mRNA in the presence of chemical substance/: 1.2
Yeast gene YDL123W
  The level of expressed mRNA in the presence of chemical substance/: 1.1
Yeast gene YDL124W
  The level of expressed mRNA in the presence of chemical substance/in the absence of chemical substance: 2.2
Yeast gene YDL128W
  The level of expressed mRNA in the presence of chemical substance/ (ratio to absence): 0.9
Yeast gene YDL149W
  The level of expressed mRNA in the presence of chemical substance/ (ratio to absence): 0.8
Yeast gene YDL174C
  The level of expressed mRNA in the presence of chemical substance/in the absence of chemical substance: 2.2
Yeast gene YDL198C
  The level of expressed mRNA in the presence of chemical substance/ (ratio to absence): 1.5
Yeast gene YDL206W
  The level of expressed mRNA in the presence of chemical substance/ (ratio to absence): 1.0
Yeast gene YDL210W
  The level of expressed mRNA in the presence of chemical substance/ (ratio to absence): 1.1
Yeast gene YDL215C, ratio of DNA chip fluorescence intensity to that without chemical substance
  The level of expressed mRNA in the presence of chemical substance/ (in its absence), gene YDL215C: 1.1
Yeast gene YDL234C
  The level of expressed mRNA in the presence of chemical substance/: 2.3
Yeast gene YDL238C
  The level of expressed mRNA in the presence of chemical substance/The level of expressed mRNA in the absence of chemical substance: 1.1
Yeast gene YDL242W
  The level of expressed mRNA in the presence of chemical substance/: 0.9
Yeast gene YDL243C
  The level of expressed mRNA in the presence of chemical substance/in the absence of chemical substance: 1.8
Yeast gene YDL245C
  The level of expressed mRNA in the presence of chemical substance/in the absence of chemical substance: 1.0
  The level of expressed mRNA in the presence of chemical substance/ (ratio to absence): 1.0
Yeast gene YDL246C
  The level of expressed mRNA in the presence of chemical substance/in the absence of chemical substance: 1.8
Yeast gene YDR001C
  The level of expressed mRNA in the presence of chemical substance/in the absence of chemical substance: 1.1
Yeast gene YDR018C
  The level of expressed mRNA in the presence of chemical substance/: 0.9
Yeast gene YDR038C
  The level of expressed mRNA in the presence of chemical substance/ (ratio to absence): 1.3
Yeast gene YDR039C
  The level of expressed mRNA in the presence of chemical substance/ (ratio to absence): 1.1
Yeast gene YDR040C
  The level of expressed mRNA in the presence of chemical substance/ (ratio to absence): 1.4
Yeast gene YDR055W
  The level of expressed mRNA in the presence of chemical substance/The level of expressed mRNA in the absence of chemical substance: 2.0
Yeast gene YDR056C
  The level of expressed mRNA in the presence of chemical substance/: 1.2
Yeast gene YDR058C
  The level of expressed mRNA in the presence of chemical substance/in the absence of chemical substance: 1.1
Yeast gene YDR072C
  The level of expressed mRNA in the presence of chemical substance/in the absence of chemical substance: 1.9
Yeast gene YDR073W, ratio of DNA chip fluorescence intensity to that without chemical substance
  The level of expressed mRNA in the presence of chemical substance/ (in its absence), gene YDR073W: 1.8
Yeast gene YDR079W, energy system protein genes, 2 h culture with the chemical, ratio to control without chemical
  The level of expressed mRNA in the presence of chemical substance/ in its absence, gene YDR079W: 1.1
Yeast gene YDR079W, mitochondria-located protein genes, 2 h culture with chemical
  The level of expressed mRNA in the presence of chemical substance/ (ratio to absence), gene YDR079W: 1.1
Yeast gene YDR084C
  The level of expressed mRNA in the presence of chemical substance/The level of expressed mRNA in the absence of chemical substance: 2.0
Yeast gene YDR085C
  The level of expressed mRNA in the presence of chemical substance/The level of expressed mRNA in the absence of chemical substance: 1.3
Yeast gene YDR104C
  The level of expressed mRNA in the presence of chemical substance/The level of expressed mRNA in the absence of chemical substance: 0.9
Yeast gene YDR115W
  The level of expressed mRNA in the presence of chemical substance/The level of expressed mRNA in the absence of chemical substance: 1.2
Yeast gene YDR127W
  The level of expressed mRNA in the presence of chemical substance/in the absence of chemical substance: 0.9
Yeast gene YDR132C
  The level of expressed mRNA in the presence of chemical substance/: 1.0
Yeast gene YDR154C
  The level of expressed mRNA in the presence of chemical substance/: 1.5
Yeast gene YDR158W
  The level of expressed mRNA in the presence of chemical substance/in the absence of chemical substance: 1.0
Yeast gene YDR202C
  The level of expressed mRNA in the presence of chemical substance/: 1.0
Yeast gene YDR204W
  The level of expressed mRNA in the presence of chemical substance/in the absence of chemical substance: 1.1
Yeast gene YDR223W
  The level of expressed mRNA in the presence of chemical substance/: 0.9
Yeast gene YDR259C
  The level of expressed mRNA in the presence of chemical substance/The level of expressed mRNA in the absence of chemical substance: 1.0
Yeast gene YDR261C
  The level of expressed mRNA in the presence of chemical substance/in the absence of chemical substance: 0.9
Yeast gene YDR270W
  The level of expressed mRNA in the presence of chemical substance/ (ratio to absence): 0.9
Yeast gene YDR272W
  The level of expressed mRNA in the presence of chemical substance/in the absence of chemical substance: 1.4
Yeast gene YDR295C
  The level of expressed mRNA in the presence of chemical substance/: 0.8
Yeast gene YDR297W, ratio of DNA chip fluorescence intensity to that without chemical substance
  The level of expressed mRNA in the presence of chemical substance/ (in its absence), gene YDR297W: 1.9
